Converted amounts (≈) assume the structure as drawn. “And” between values parts separate entries of the source, which are not always exact repeats. Identical values can stand only once. Like-named read-outs stand apart in the source and are kept apart here.
Columns and labels:
C8166 cells = experiment: Cytotoxicity in C8166 cells (CC50); format: cell-based, human; conditions: measured twice, average
Method: (§1) The anti-HIV activity was determined by the "Guiding Principles of Anti HIV Drug Unclinical Pharmacodynamics" of SFDA which is tested by technology standard assay according to International Universal Standards and Methods. Where in CC50, EC50 were measured twice and took the average.

H9 cells = experiment: Cytotoxicity in H9 cells (CC50); format: cell-based, human; conditions: measured twice, average
Method: as §1

HIV-1IIIB (C8166 cells) = experiment: Anti-HIV activity in C8166 cells; format: cell-based; conditions: for TI: TI(CC50/EC50)
Method: as §1

HIV-1IIIB(H9 cells) = experiment: Anti-HIV activity in H9 cells; format: cell-based; conditions: for TI: TI(CC50/EC50)
Method: as §1

HIVKM018 = conditions: HIVKM018, clinical strain
Method: as §1

Acute toxicity test = format: in vivo; conditions: for safety at a high dose: high dose (10g/kg); for acute toxicity test: in vivo
HIV-1A17 = conditions: HIV-1A17, NVP resistant
Method: as §1

HIV-1TC-1 = conditions: HIV-1TC-1, clinical strain
Method: as §1

HIV-2 CBL-20 = experiment: Anti-HIV-2 activity and cytotoxicity; format: cell-based
[1] = Pharmacokinetics: metabolism of 67 to 46, blood concentration and bioavailability; format: in vivo; conditions: after oral gavage of 67 by 100mg/kg
HIV-2 ROD = experiment: Anti-HIV-2 activity and cytotoxicity; format: cell-based
[2] = H9 cells, HIV-1IIIB, measured twice, average
[3] = Human immunodeficiency virus 1, C8166 cells, HIV-1IIIB, measured twice, average, read-out: EC50
[4] = Human immunodeficiency virus 1, H9 cells, HIV-1IIIB, measured twice, average, read-out: EC50

| Compound | EC50 (HIV-1IIIB (C8166 cells); [3]) [µg/mL] | EC50 (HIV-1IIIB(H9 cells); [4]) [µg/mL] | further results |
| --- | --- | --- | --- |
| 5-(dimethylamino)-N-(2-methoxyphenyl)-2-((4-nitrophenyl)thio)benzamide [compound 28] |  |  | CC50 (C8166 cells): 93.04 µg/mL; CC50 (H9 cells): 77.23 µg/mL; EC50 (HIV-1IIIB (C8166 cells); C8166 cells, HIV-1IIIB, measured twice, average): 83.84 µg/mL; EC50 (HIV-1IIIB(H9 cells); [2]): 98.45 µg/mL |
| COc1ccccc1NC(=O)c1cc(C(F)(F)F)ccc1Sc1ccc([N+](=O)[O-])cc1 [compound 22, N-(2-methoxyphenyl)-2-((4-nitrophenyl)thio)-5-(trifluoromethyl)benzamide] | > 200 | > 200 |  |
| COc1ccccc1NC(=O)c1cc(N)ccc1Sc1ccc([N+](=O)[O-])cc1 [compound 24, 5-amino-N-(2-methoxyphenyl)-2-((4-nitrophenyl)thio)benzamide] | 2.59 (≈ 6.55 µM) | 2.62 (≈ 6.63 µM) |  |
| COc1ccccc1NC(=O)c1c(N)cccc1S(=O)(=O)c1ccc([N+](=O)[O-])cc1 [compound 46, 2-amino-N-(2-methoxyphenyl)-6-((4-nitroph-enyl)sulfonyl)benzamide] |  |  | TI(CC50/EC50) (HIVKM018): >31.65; safety at a high dose (Acute toxicity test): very safe; acute toxicity test (Acute toxicity test): no abnormal phenomenon occurred; TI (HIV-1IIIB (C8166 cells); C8166 cells): 2081.59 and 2018.59; TI (HIV-1IIIB(H9 cells); H9 cells): >303.03; TI(CC50/EC50) (HIV-1A17): >20; TI(CC50/EC50) (HIV-1TC-1): >1818.18 |
| COc1ccccc1NC(=O)c1c(N)cccc1Oc1ccc([N+](=O)[O-])cc1 [compound 48, 2-amino-N-(2-methoxyphenyl)-6-(4-nitrop-henoxy)benzamide] |  |  | EC50 (HIV-1IIIB(H9 cells); [2]): 35.87 µg/mL (≈ 94.6 µM) |
| COc1ccccc1NC(=O)c1c(N(C)C)cccc1S(=O)(=O)c1ccc([N+](=O)[O-])cc1 [compound 58, 2-(dimethylamino)-N-(2-methoxyphenyl)-6-((4-nitrophenyl)sulfonyl)benzamide] | 100 (≈ 219 µM) | 103 (≈ 226 µM) |  |
| CNc1cccc(S(=O)(=O)c2ccc([N+](=O)[O-])cc2)c1C(=O)Nc1ccccc1OC [compound 59, N-(2-methoxyphenyl)-2-(methylamino)-6-((4-nitrophenyl)sulfonyl)benzamide] | 63.7 (≈ 144 µM) | 123 (≈ 278 µM) |  |
| COc1ccccc1NC(=O)c1c(NS(=O)(=O)c2ccccc2)cccc1S(=O)(=O)c1ccc([N+](=O)[O-])cc1 [compound 61, N-(2-methoxyphenyl)-2-((4-nitrophenyl)sulfonyl)-6-(phenylsulfonamido)benzamide] | 46.9 (≈ 82.7 µM) | > 200 |  |
| COc1ccccc1NC(=O)c1c(NCP(=O)(OC(C)C)OC(C)C)cccc1Sc1ccc([N+](=O)[O-])cc1 [compound 65, diisopropyl(((2-((2-methoxyphenyl)carbamoyl)-3-((4-nitro-phenyl)thio)phenyl)amino)methyl)phosphonate] |  |  | TI (HIV-1IIIB (C8166 cells); C8166 cells): 0.18; EC50 (HIV-1IIIB (C8166 cells); Human immunodeficiency virus 1, C8166): 106 µg/mL (≈ 184 µM); TI (HIV-1IIIB(H9 cells); H9 cells): 0.13; EC50 (HIV-1IIIB(H9 cells); Human immunodeficiency virus 1, H9): > 200 µg/mL |
| COc1ccccc1NC(=O)c1c(NC(=O)CN)cccc1S(=O)(=O)c1ccc([N+](=O)[O-])cc1.Cl.Cl [compound 67, 2-(2-aminoacetamido)-N-(2-methoxyphenyl)-6-((4-nitrophenyl)sulfonyl)benzamide hydrochloride hydrochloride] | 0.43 | 0.12 | TI (HIV-2 CBL-20): 87.82; safety at a high dose (Acute toxicity test): very safe; acute toxicity test (Acute toxicity test): no abnormal phenomenon occurred; max blood concentration of 46 [1]: 21.662 µg/mL; TI (HIV-1IIIB (C8166 cells); C8166 cells): 388.04; TI (HIV-1IIIB(H9 cells); H9 cells): 790.58; TI (HIV-2 ROD): 161.78 |
| COc1ccccc1NC(=O)c1c(NC(=O)C(N)CCCCN)cccc1Sc1ccc([N+](=O)[O-])cc1.Cl (centres unmarked) [compound 68, 2-(2,6-diaminohexanamido)-N-(2-methoxyphenyl)-6-((4-nitrophenyl)thio)benzamide hydrochloride] | 0.94 | 2.38 | TI (HIV-1IIIB (C8166 cells); C8166 cells): 122.45; TI (HIV-1IIIB(H9 cells); H9 cells): 37.85 |
| Nc1cccc(Sc2ccc([N+](=O)[O-])cc2)c1C(=O)Nc1ccccc1I [compound 71, 2-amino-N-(2-iodophenyl)-6-((4-nitrophenyl)thio)benzamide] | 61.4 (≈ 125 µM) | > 200 |  |
| Nc1cccc(S(=O)(=O)c2ccc([N+](=O)[O-])cc2)c1C(=O)Nc1ccccc1I [compound 72, 2-amino-N-(2-iodophenyl)-6-((4-nitrophenyl)sulfonyl)benzamide] | 16.2 (≈ 30.9 µM) | 193 (≈ 368 µM) |  |
| COc1ccccc1NC(=O)c1c(N)cccc1Sc1ccc(C(=O)O)cc1 [compound 76, 4-((3-amino-2-((2-methoxyphenyl)carbamoyl)phenyl)thio)benzoic acid] | 92 (≈ 233 µM) | 100 (≈ 254 µM) |  |
| COc1ccccc1NC(=O)c1c(N)cccc1S(=O)(=O)c1ccc(C(=O)O)cc1 [compound 77, 4-((3-amino-2-((2-methoxyphenyl)carbamoyl)phenyl)sulfonyl)benzoic acid] | > 200 | > 200 |  |
| COc1ccccc1NC(=O)c1c(NCCN)cccc1Sc1ccc([N+](=O)[O-])cc1 [compound 78, 2-((2-aminoethyl)amino)-N-(2-methoxyphenyl)-6-((4-nitrophenyl)thio)benzamide] | 16.9 (≈ 38.6 µM) | 19.9 (≈ 45.4 µM) |  |
| COc1ccccc1NC(=O)c1c(NCC(N)=O)cccc1Sc1ccc([N+](=O)[O-])cc1 [compound 82, 2-((2-amino-2-oxoethyl)amino)-N-(2-methoxyphenyl)-6-((4-nitrophenyl)thio)benzamide] | > 200 | > 200 |  |
| COc1ccccc1NC(=O)c1c(NC(=O)C(N)Cc2ccccc2)cccc1S(=O)(=O)c1ccc([N+](=O)[O-])cc1 (centres unmarked) [compound 83, 2-(2-amino-3-phenylpropanamido)-N-(2-methoxyphenyl)-6-((4-nitrophenyl)sulfonyl)benzamide] | 0.45 (≈ 0.783 µM) | 0.15 (≈ 0.261 µM) |  |

From patent publication EP2924021A1, “ANTI-HIV COMPOUND AND PREPARATION METHOD AND USE THEREOF” (priority 2012, dated 2014)
